Drawing on patent US7329681B2, “Inhibitors of IMPDH enzyme” (Vertex Pharmaceuticals Incorporated, priority 1996, dated 2008), this text covers Ki for 71 compounds.

In general, Ki refers to a measure of affinity in units of concentration, obtained from inhibition or displacement.

One experiment concerns the target IMPDH human type II (Homo sapiens, UniProt P12268). Description: IMPDH activity inhibition assay (spectrophotometric, NADH formation at 340 nm). It counts as biochemical.
Conditions: not given
How it is done:
We have measured the inhibition constants of each compound against IMPDH using an adaptation of the method first reported by […]. Moyed, and […]. Biol. Chem., 226, p. 339 (1957)]. We measured the inhibition constants of the compounds listed in Table III utilizing the following protocol: IMP dehydrogenase activity was assayed following an adaptation of the method first reported by […]. Moyed, H. S. and […]. Biol. Chem. 226, 339]. Enzyme activity was measured spectrophotometrically, by monitoring the increase in absorbance at 340 nm due to the formation of NADH (ε340 is 6220 M^-1 cm^-1). The reaction mixture contained 0.1 M Tris pH 8.0, 0.1 M KCl, 3 mM EDTA, 2 mM DTT, […] and enzyme (IMPDH human type II) at a concentration of 15 to 50 nM. This solution is incubated at 37° C. for 10 minutes. The reaction is started by adding NAD to a final concentration of 0.1 M and the initial rate is measured by following the linear increase in absorbance at 340 nm for 10 minutes. For reading in a standard spectrophotometer (path length 1 cm) the final volume in the cuvette is 1.0 ml. The assay has also been adapted to a 96 well microtiter plate format; in this case the concentrations of all the reagents remain the same and the final volume is decreased to 200 μl. For the analysis of inhibitors, the compound in question is dissolved in DMSO to a final concentration of 20 mM and added to the initial assay mixture for preincubation with the enzyme at a final volume of 2-5% (v/v). The reaction is started by the addition of NAD, and the initial rates measured as above. […] The designation “ND” is used where a given compound was not tested.
In turn, `COC(=O)NCc1cccc(NC(=O)Nc2ccc(-c3cnco3)c(OC)c2)c1` [Compound 118] showed a Ki of 1000 to 10000 nM.

Compound `COc1cc(NC(=O)Nc2cccc(CNC(=O)OCCO)c2)ccc1-c1cnco1` [Compound 134] showed a Ki of 0.01 to 50 nM.

In turn, `COc1cc(NC(=O)Nc2cccc(CNC(=O)Oc3cccnc3)c2)ccc1-c1cnco1` [Compound 137] returned a Ki of 51 to 1000 nM.

The experiment is the same for the next values; noted with them: IMPDH human type II, 15 to 50 nM enzyme, 37° C., tight-binding fit (Henderson); read-out: Ki.
For `Cc1ncc(-c2cccc(NC(=O)Nc3ccc(-c4cnco4)cc3)c2)cn1` [Compound 66], the Ki lay in the range of 1000 to 10000 nM.

Regarding `COc1cc(NC(=O)Nc2cccc(CNC(=O)OC(C)(C)C)c2)ccc1-c1cnco1` [Compound 113], the Ki was in the range of 0.01 to 50 nM.

With `COc1cc(NC(=O)Nc2cccc(CNC(=O)OCc3ccccn3)c2)ccc1-c1cnco1` [Compound 121], the Ki lay in the range of 0.01 to 50 nM.

In the case of `O=C(Nc1ccc(-c2cnco2)cc1)Nc1ccc(F)c(Cl)c1` [Compound 23], the Ki lay in the range of 1000 to 10000 nM.

As for `COC(=O)Nc1cccc(NC(=O)Nc2ccc(-c3cnco3)c(Cl)c2)c1` [Compound 71], the Ki fell in the range of 1000 to 10000 nM.

For `COc1cc(NC(=O)Nc2cccc(NC(C)=O)c2)ccc1-c1cnco1` [Compound 84], the Ki was 51 to 1000 nM.

With `COc1ccc(NC(=O)Nc2cccc(C)c2)cc1OC` [Compound 28], the Ki was 1000 to 10000 nM.

In the case of `Cc1cccc(NC(=O)Nc2ccc(-c3ocnc3C)c(Cl)c2)c1` [Compound 76], the Ki fell in the range of 1000 to 10000 nM.

With `COC(=O)Cc1cccc(NC(=O)Nc2ccc(-c3cnco3)c(Cl)c2)c1` [Compound 57], the Ki lay in the range of 51 to 1000 nM.

Turning to `CN(C(=O)C(F)(F)F)c1cccc(NC(=O)Nc2ccc(-c3cnco3)c(Cl)c2)c1` [Compound 93], the Ki lay within 0.01 to 50 nM.

Consider `COc1cc(NC(=O)Nc2cccc(CNC(=O)OCCCSC)c2)ccc1-c1cnco1` [Compound 145], for which the Ki was in the range of 0.01 to 50 nM.

With `COc1ccc(NC(=O)Nc2cccc(SC)c2)cc1OC` [Compound 38], the Ki was greater than 10000 nM.

Take `CNS(=O)(=O)c1cccc(NC(=O)Nc2ccc(-c3cnco3)cc2)c1` [Compound 81]: the Ki lay in the range of 1000 to 10000 nM.

In the case of `COc1cc(NC(=O)Nc2cccc(N(C)C(C)=O)c2)ccc1C#N` [Compound 164], the Ki was in the range of 51 to 1000 nM.

As to `COc1cc(NC(=O)Nc2cccc(C)c2)ccc1-c1cnco1` [Compound 55], the Ki lay in the range of 0.01 to 50 nM.

For `COc1cc(NC(=O)Nc2cccc(CNC(=O)OC3COCOC3)c2)ccc1-c1cnco1` [Compound 126], the Ki was in the range of 0.01 to 50 nM.

For the compound `COc1cc(NC(=O)Nc2cccc(CNC(=O)OCCCCO)c2)ccc1-c1cnco1` [Compound 140], the Ki was 0.01 to 50 nM.

On to `COc1cc(NC(=O)Nc2cccc(CNC(=O)OC3CCCN(C(=O)OC(C)(C)C)C3)c2)ccc1-c1cnco1` (centres unmarked) [Compound 143], for which the Ki fell in the range of 51 to 1000 nM.

Consider `COc1cc(NC(=O)Nc2cccc(CNC(=O)OCc3ccco3)c2)ccc1-c1cnco1` [Compound 128], for which the inhibitory constant (Ki) was in the range of 0.01 to 50 nM.

On to `O=C(Nc1ccccc1)Nc1ccc(-c2cnco2)c(F)c1` [Compound 45], for which the Ki was 1000 to 10000 nM.

On to `COc1ccc(Cl)cc1NC(=O)Nc1ccc(OC)c(OC)c1` [Compound 35], for which the Ki lay in the range of 1000 to 10000 nM.

Consider `O=C(Nc1ccc(-c2cnco2)cc1)Nc1cccc(Cl)c1` [Compound 22], for which the Ki was 1000 to 10000 nM.

Take `COc1cc(NC(=O)Nc2cccc(CNC(=O)OCc3cccs3)c2)ccc1-c1cnco1` [Compound 129]: the Ki is 0.01 to 50 nM.

As for `COc1cc(NC(=O)Nc2cccc(CNC(=O)OCCCCCO)c2)ccc1-c1cnco1` [Compound 141], the Ki fell in the range of 0.01 to 50 nM.

Consider `COc1cc(NC(=O)Nc2cccc(CNC(=O)OC(CO)CO)c2)ccc1-c1cnco1` [Compound 151], for which the Ki was 51 to 1000 nM.

In the case of `CC(=O)N(C)c1cccc(NC(=O)Nc2ccc(C#N)c(Cl)c2)c1` [Compound 163], the Ki is 51 to 1000 nM.

`O=C(Nc1ccncc1)Nc1ccc(-c2cnco2)cc1` [Compound 30]: the Ki was in the range of 1000 to 10000 nM.

Turning to `COc1cccc(NC(=O)Nc2ccc(-c3cnco3)cc2)c1` [Compound 13], the Ki fell in the range of 1000 to 10000 nM.

For the compound `O=C(Nc1ccc(-c2cnco2)cc1)Nc1ccccc1C(F)(F)F` [Compound 19], the Ki is 1000 to 10000 nM.

Consider `COc1cc(NC(=S)Nc2cccc(C)c2)ccc1-c1cnco1` [Compound 115], for which the Ki lay within 51 to 1000 nM.

On to `O=C(Nc1ccc(-c2cnco2)cc1)Nc1ccsc1` [Compound 3], for which the Ki was in the range of 51 to 1000 nM.

Turning to `COc1cc(NC(=O)Nc2cccc(NC(=O)CC3CCCC3)c2)ccc1-c1cnco1` [Compound 114], the Ki was in the range of 51 to 1000 nM.

As to `O=C(Nc1ccc(-c2cnco2)cc1)Nc1cccc(C(F)(F)F)c1` [Compound 18], the inhibitory constant (Ki) is 1000 to 10000 nM.

Regarding `COc1cc(NC(=O)Nc2ccc3c(c2)N(C(C)=O)CC3)ccc1-c1cnco1` [Compound 106], the Ki was in the range of 51 to 1000 nM.

As for `COc1cc(NC(=O)Nc2cccc(NC(=O)Nc3ccccc3)c2)ccc1-c1cnco1` [Compound 112], the Ki was in the range of 51 to 1000 nM.

On to `COc1cc(NC(=O)Nc2cccc(CNC(=O)OC3CCCSC3)c2)ccc1-c1cnco1` (centres unmarked) [Compound 161], for which the Ki is 0.01 to 50 nM.

On to `COc1cc(NC(=O)Nc2cccc(CNC(=O)O[C@H]3CCOC3)c2)ccc1-c1cnco1` [Compound 120], for which the Ki is 0.01 to 50 nM.

As to `COC(=O)Cc1cccc(NC(=O)Nc2ccc(-c3cnco3)cc2)c1` [Compound 47], the Ki lay in the range of 51 to 1000 nM.

`O=C(Nc1ccc(-c2cnco2)c(Cl)c1)Nc1ccc(-c2cnco2)c(Cl)c1` [Compound 61]: the Ki is greater than 10000 nM.

As for `COc1cc(NC(=O)Nc2cccc(CNC(=O)OCC(C)C)c2)ccc1-c1cnco1` [Compound 124], the Ki fell in the range of 0.01 to 50 nM.

On to `CSc1cc(NC(=O)Nc2cccc(CNC(=O)O[C@H]3CCOC3)c2)ccc1C#N` [Compound 165], for which the Ki was in the range of 0.01 to 50 nM.

Turning to `COc1cc(NC(=O)Nc2cccc(NC(=O)OCc3ccccc3)c2)ccc1-c1cnco1` [Compound 83], the Ki lay in the range of 51 to 1000 nM.

Consider `Cc1cccc(NC(=O)Nc2ccc(C#N)cc2)c1` [Compound 33], for which the Ki was greater than 10000 nM.

On to `Cc1cccc(NC(=O)Nc2ccc(-c3cnco3)c(Br)c2)c1` [Compound 60], for which the Ki lay in the range of 51 to 1000 nM.

Regarding `COc1cc(NC(=O)Nc2cccc(N(C)C(=O)C(F)(F)F)c2)ccc1-c1cnco1` [Compound 97], the Ki lay within 0.01 to 50 nM.

With `Nc1cccc(NC(=O)Nc2ccc(-c3cnco3)c(Br)c2)c1` [Compound 65], the Ki lay within 51 to 1000 nM.

As for `CCc1cccc(NC(=O)Nc2ccc(OC)c(OC)c2)c1` [Compound 37], the Ki is 1000 to 10000 nM.

As for `COC(=O)c1cc(NC(=O)Nc2cccc(C)c2)ccc1-c1cnco1` [Compound 88], the Ki is 1000 to 10000 nM.

Turning to `COc1cc(NC(=O)Nc2cccc(CNC(=O)OCC3CCCCO3)c2)ccc1-c1cnco1` (centres unmarked) [Compound 154], the Ki lay in the range of 0.01 to 50 nM.

For the compound `CC(=O)Nc1cccc(NC(=O)Nc2ccc(-c3cnco3)c(Cl)c2)c1` [Compound 72], the Ki fell in the range of 1000 to 10000 nM.

`O=C(Nc1ccc(-c2cnco2)cc1)Nc1cccnc1` [Compound 29]: the Ki was greater than 10000 nM.

Turning to `Cc1cccc(NC(=O)Nc2ccc(-c3ocnc3C)cc2)c1` [Compound 77], the Ki was 51 to 1000 nM.

With `O=C(Nc1ccc(-c2cnco2)cc1)Nc1cccc(F)c1` [Compound 20], the Ki lay within 1000 to 10000 nM.

For `Cc1cc(N)cc(NC(=O)Nc2ccc(-c3cnco3)cc2)c1` [Compound 58], the Ki is 1000 to 10000 nM.

With `COc1cc(NC(=O)Nc2cccc(CN(C)C(=O)OC(C)(C)C)c2)ccc1-c1cnco1` [Compound 117], the Ki fell in the range of 51 to 1000 nM.

Consider `Cc1ccc(NC(=O)Nc2ccc(-c3cnco3)c(Cl)c2)s1` [Compound 86], for which the Ki lay in the range of 1000 to 10000 nM.

`Cc1cccc(NC(=O)Nc2ccc(-c3cnco3)c(N)c2)c1` [Compound 109]: the Ki lay within 51 to 1000 nM.

As to `COc1cc(NC(=O)Nc2cccc(CNC(=O)OC3CCCNC3)c2)ccc1-c1cnco1` (centres unmarked) [Compound 153], the Ki lay within 0.01 to 50 nM.

Turning to `COc1cc(NC(=O)Nc2cccc(CNC(=O)OCC3CCNCC3)c2)ccc1-c1cnco1` [Compound 155], the Ki was in the range of 0.01 to 50 nM.

Consider `COc1cc(NC(=O)Nc2cccc(CNC(=O)OCC3CCCCN3C(=O)OC(C)(C)C)c2)ccc1-c1cnco1` (centres unmarked) [Compound 152], for which the Ki fell in the range of 51 to 1000 nM.

Consider `COc1ccc(NC(=O)Nc2cccc(C)c2)cc1CO` [Compound 90], for which the Ki was 1000 to 10000 nM.

As for `COc1cc(NC(=O)Nc2cccc(CNC(=O)OC3CCCC3)c2)ccc1-c1cnco1` [Compound 133], the Ki is 0.01 to 50 nM.

In the case of `O=C(Nc1ccc(-c2cnco2)cc1)Nc1ccc2c(c1)OCCO2` [Compound 39], the Ki is greater than 10000 nM.

Consider `Cc1cccc(NC(=O)Nc2cccc([N+](=O)[O-])c2)c1` [Compound 32], for which the Ki is greater than 10000 nM.

As for `O=C(Nc1ccc(-c2cnco2)cc1)Nc1cccc(-c2ccoc2)c1` [Compound 53], the Ki lay in the range of 1000 to 10000 nM.

In the case of `COc1cc(NC(=O)Nc2cccc(NC(=O)Oc3ccccc3)c2)ccc1-c1cnco1` [Compound 99], the Ki lay in the range of 0.01 to 50 nM.

For the compound `COc1cc(NC(=O)Nc2cccc(CN)c2)ccc1-c1cnco1` [Compound 105], the Ki lay in the range of 51 to 1000 nM.

As for `COc1cc(NC(=O)Nc2cccc(NC(=O)c3ccccc3)c2)ccc1-c1cnco1` [Compound 110], the Ki lay in the range of 51 to 1000 nM.
